Measured values reported in patent publication US9328129B2, “Peptidomimetic inhibitors of PSMA” (Washington State University, priority 2010, dated 2016).

How the values were obtained:
LNCaP (PSMA+) cells [1] = assay: Uptake of 99mTc-labeled DTPA-SCN-CTT-54 by cells, as percentage of total probe applied; format: cell-based
Procedure: (§1) Both LNCaP (PSMA+) and PC3 (PSMA−) cells were treated with DTPA-SCN-CTT-54 labeled with pertechnetate (^99mTcO4^−) reduced with SnCl2. At increasing time points at 37° C., cells were washed free of the probe and uptake was determined as a percentage of the total amount of probe applied.

[2] = tested on: LNCaP PSMA+ tumor xenografts; assay: Biodistribution of the 99mTc-labeled probe in mice bearing LNCaP and PC3 tumor xenografts; format: in vivo, mouse; conditions: LNCaP PSMA+ tumor xenograft, 4 hours following tail-vein injection
Text: Both PSMA+ (LNCaP) and PSMA− (PC3) tumor xenografts were implanted in opposite rear flanks of each mouse. Thus, each mouse served as both a positive and negative control.

LNCaP (PSMA+) cells [3] = assay: Extent of internalization of the 99mTc-labeled probe; format: cell-based
Procedure: as §1

PSMA = biological target: T1, PSMA (Homo sapiens, UniProt Q04609); assay: Competitive binding experiments: preincubation with unlabeled CTT-54 before the radiolabeled probe; format: cell-based; conditions: 0 nM CTT-54, probe 2 hours
T1 construct: endogenous in cells; host or cells: LNCaP
T1 sequence (Q04609 whole entry): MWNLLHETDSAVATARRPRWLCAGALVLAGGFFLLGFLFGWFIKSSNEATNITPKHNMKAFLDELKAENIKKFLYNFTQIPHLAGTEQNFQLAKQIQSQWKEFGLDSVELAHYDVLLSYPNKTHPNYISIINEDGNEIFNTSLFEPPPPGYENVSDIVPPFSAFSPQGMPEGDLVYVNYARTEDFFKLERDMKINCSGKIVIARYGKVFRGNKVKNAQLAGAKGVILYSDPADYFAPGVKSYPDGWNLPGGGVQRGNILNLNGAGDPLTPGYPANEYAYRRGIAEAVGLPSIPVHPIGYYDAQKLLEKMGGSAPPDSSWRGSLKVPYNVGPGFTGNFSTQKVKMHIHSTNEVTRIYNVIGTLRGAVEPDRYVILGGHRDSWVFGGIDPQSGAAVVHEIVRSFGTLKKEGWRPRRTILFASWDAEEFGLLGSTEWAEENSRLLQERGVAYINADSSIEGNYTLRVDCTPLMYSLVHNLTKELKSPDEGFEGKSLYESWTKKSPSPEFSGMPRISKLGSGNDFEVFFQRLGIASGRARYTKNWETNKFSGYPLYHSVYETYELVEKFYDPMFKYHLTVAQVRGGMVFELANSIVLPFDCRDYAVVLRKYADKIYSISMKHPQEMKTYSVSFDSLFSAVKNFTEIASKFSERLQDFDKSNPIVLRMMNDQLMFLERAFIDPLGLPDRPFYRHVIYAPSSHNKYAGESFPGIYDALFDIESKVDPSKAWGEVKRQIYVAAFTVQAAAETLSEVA

## O=C(O)CC[C@H](NP(=O)(O)OC[C@H](NC(=O)CC[C@H](NC(=S)Nc1ccc(CC(CN(CCN(CC(=O)O)CC(=O)O)CC(=O)O)N(CC(=O)O)CC(=O)O)cc1)C(=O)O)C(=O)O)C(=O)O (stereo partly drawn) (99mTc complex, metal not drawn) [DTPA-SCN-CTT-54, N-{[(4-{2-[bis(carboxymethyl)amino]-3-[{2-[bis(carboxymethyl)amino]ethyl} (carboxymethyl)amino]propyl}phenyl)amino]carbonothioyl}-L-γ-glutamyl-O-[{[(1S)-1,3-dicarboxypropyl]amino} (hydroxy)phosphoryl]-L-serine]
LNCaP (PSMA+) cells [1]
  time for binding to the cell surface: ≤ 30 min
LNCaP (PSMA+) cells [1]; 30 min
  % uptake: 2.30%
LNCaP (PSMA+) cells [1]; 2 hr
  % uptake: 2.94%
LNCaP (PSMA+) cells [1]; 4 hr
  % uptake: 2.34%
LNCaP (PSMA+) cells [1]; labeled with pertechnetate (99mTcO4−) reduced with SnCl2, increasing time points at 37° C.
  uptake (LNCaP versus PC3 cells): exclusive for LNCaP cells
[2]
  uptake in tumor xenografts (biodistribution): substantial uptake
LNCaP (PSMA+) cells [3]; 30 min
  % internalization: 71.9%
LNCaP (PSMA+) cells [3]; 2 hr
  % internalization: 71.0%
LNCaP (PSMA+) cells [3]; 4 hr
  % internalization: 79.5%
LNCaP (PSMA+) cells [3]; preliminary studies
  extent of internalization of the probe: greater than 80%
LNCaP (PSMA+) cells [3]; within 30 min
  internalization: greater than 70%

## O=C(O)CC[C@H](NP(=O)(O)OC[C@H](NC(=O)CC[C@H](NC(=S)Nc1ccc(CC(CN(CCN(CC(=O)O)CC(=O)O)CC(=O)O)N(CC(=O)O)CC(=O)O)cc1)C(=O)O)C(=O)O)C(=O)O (stereo partly drawn) [DTPA-SCN-CTT-54, N-{[(4-{2-[bis(carboxymethyl)amino]-3-[{2-[bis(carboxymethyl)amino]ethyl} (carboxymethyl)amino]propyl}phenyl)amino]carbonothioyl}-L-γ-glutamyl-O-[{[(1S)-1,3-dicarboxypropyl]amino} (hydroxy)phosphoryl]-L-serine]
PSMA
  % Uptake of the radiolabeled probe without competitor: 4.46%
